System: A375_Cra_F7_5/13
Assay: pERK immunofluorescence, normalised; higher = more ERK phosphorylation
Settings: vemurafenib 0 µM, drug treatment time 24 h
Experimental: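 A375 or A375 CRISPRa-EGFR (A375_Cra_F7_5/13) cells were adapted for 24 h to a cobimetinib dose series, with or without 1 uM vemurafenib, then stimulated with EGF (100 ng/mL) or mock medium and fixed at the indicated times. pERK was measured by immunofluorescence as the population mean normalised to baseline, with the SD of technical replicates (n=2).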

O=C(c1ccc(F)c(F)c1Nc1ccc(I)cc1F)N1CC(O)([C@@H]2CCCCN2)C1 [cobimetinib]
pERK immunofluorescence
Settings | cobimetinib 31.62 pM | cobimetinib 0.0001 µM | cobimetinib 0.000316228 µM | cobimetinib 0.001 µM | cobimetinib 0.003162278 µM | cobimetinib 0.01 µM | cobimetinib 0.031622777 µM | cobimetinib 0.1 µM | cobimetinib 0.316227766 µM | cobimetinib 1 µM
EGF 0 ng/mL, time after EGF/mock 0.083 h | 0.992 | 1.01 | 0.951 | 0.771 | 0.467 | 0.234 | 0.142 | 0.111 | 0.0968 | 0.0989
EGF 0 ng/mL, time after EGF/mock 0.5 h | 0.968 | 0.9446 | 0.859 | 0.742 | 0.422 | 0.214 | 0.177 | 0.143 | 0.0997 | 0.09394
EGF 0 ng/mL, time after EGF/mock 2 h | 1.05 | 1.018 | 1.03 | 0.8492 | 0.55 | 0.217 | 0.121 | 0.107 | 0.1 | 0.099798
EGF 0 ng/mL, time after EGF/mock 8 h | 0.974 | 0.999 | 0.9603 | 0.801 | 0.47 | 0.189 | 0.102 | 0.086 | 0.082 | 0.082503
EGF 0 ng/mL, time after EGF/mock 24 h | 1.07 | 1.053 | 1.04 | 0.927 | 0.531 | 0.189 | 0.116 | 0.1 | 0.08927 | 0.0841
EGF 100 ng/mL, time after EGF/mock 0.083 h | 1.47 | 1.44 | 1.43 | 1.42 | 1.37 | 1.27 | 1.15 | 0.883 | 0.31 | 0.111
EGF 100 ng/mL, time after EGF/mock 0.5 h | 1.35 | 1.34 | 1.31 | 1.36 | 1.32 | 1.26 | 1.15 | 1.02 | 0.675 | 0.179
EGF 100 ng/mL, time after EGF/mock 2 h | 1.21 | 1.194 | 1.14 | 1.08 | 0.926 | 0.7446 | 0.65813 | 0.527 | 0.341 | 0.137
EGF 100 ng/mL, time after EGF/mock 8 h | 0.99 | 0.999 | 0.997 | 0.8777 | 0.735 | 0.5778 | 0.475 | 0.3675 | 0.221 | 0.1
EGF 100 ng/mL, time after EGF/mock 24 h | 1.07 | 1.08 | 1.084 | 1.04 | 0.902 | 0.689 | 0.5819 | 0.465 | 0.273 | 0.107

— the supplement of paper PMC9912026
